Assay results from US20150087627A1, “COMBINATION OF KINASE INHIBITORS AND USES THEREOF” (Intellikine LLC, priority 2011, published 2015).

Key:
PI3K α (p110α/p85α) = biological target: T1, PI3K α (p110α/p85α) (Homo sapiens, UniProt P42336); assay: PI 3-Kinase (human) HTRF assay, PI3K α; type: biochemical; conditions: read-out: PI3K α IC50
T1 construct: purchased Upstate / Millipore Corporation

PI3K β (p110β/p85α) = biological target: T2, PI3K β (p110β/p85α) (Homo sapiens, UniProt P42338); assay: PI 3-Kinase (human) HTRF assay, PI3K β; type: biochemical; conditions: read-out: PI3K β IC50
T2 construct: purchased Upstate / Millipore Corporation
T2 sequence (P42338 whole entry): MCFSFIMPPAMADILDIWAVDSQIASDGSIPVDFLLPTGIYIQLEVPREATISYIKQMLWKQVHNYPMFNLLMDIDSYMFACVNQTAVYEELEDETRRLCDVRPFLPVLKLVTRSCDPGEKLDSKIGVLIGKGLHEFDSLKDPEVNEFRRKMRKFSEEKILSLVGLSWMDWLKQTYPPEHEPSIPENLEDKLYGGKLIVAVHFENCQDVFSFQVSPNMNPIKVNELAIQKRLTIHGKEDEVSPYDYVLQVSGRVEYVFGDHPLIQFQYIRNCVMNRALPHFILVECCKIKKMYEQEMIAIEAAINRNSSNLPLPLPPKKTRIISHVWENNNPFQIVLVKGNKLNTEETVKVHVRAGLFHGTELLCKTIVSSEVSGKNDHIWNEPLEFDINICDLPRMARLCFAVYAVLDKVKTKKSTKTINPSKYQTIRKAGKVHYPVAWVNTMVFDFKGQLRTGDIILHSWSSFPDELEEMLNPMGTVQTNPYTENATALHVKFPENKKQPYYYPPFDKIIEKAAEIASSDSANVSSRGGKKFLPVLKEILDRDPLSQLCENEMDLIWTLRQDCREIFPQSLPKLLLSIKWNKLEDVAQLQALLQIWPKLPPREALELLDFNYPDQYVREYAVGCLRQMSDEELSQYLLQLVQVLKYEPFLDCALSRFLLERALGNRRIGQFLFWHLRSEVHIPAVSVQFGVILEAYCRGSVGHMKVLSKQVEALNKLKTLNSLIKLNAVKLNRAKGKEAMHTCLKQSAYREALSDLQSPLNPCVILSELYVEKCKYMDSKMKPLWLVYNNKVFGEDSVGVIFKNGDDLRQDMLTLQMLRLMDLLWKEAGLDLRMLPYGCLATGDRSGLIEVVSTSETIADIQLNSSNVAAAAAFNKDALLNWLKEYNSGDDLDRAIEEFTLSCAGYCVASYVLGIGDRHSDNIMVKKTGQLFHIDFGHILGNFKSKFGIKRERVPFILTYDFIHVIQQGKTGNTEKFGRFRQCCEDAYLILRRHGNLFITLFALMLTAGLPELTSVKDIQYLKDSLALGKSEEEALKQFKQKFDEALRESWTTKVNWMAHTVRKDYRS
T2 sequence (P27986 whole entry partner): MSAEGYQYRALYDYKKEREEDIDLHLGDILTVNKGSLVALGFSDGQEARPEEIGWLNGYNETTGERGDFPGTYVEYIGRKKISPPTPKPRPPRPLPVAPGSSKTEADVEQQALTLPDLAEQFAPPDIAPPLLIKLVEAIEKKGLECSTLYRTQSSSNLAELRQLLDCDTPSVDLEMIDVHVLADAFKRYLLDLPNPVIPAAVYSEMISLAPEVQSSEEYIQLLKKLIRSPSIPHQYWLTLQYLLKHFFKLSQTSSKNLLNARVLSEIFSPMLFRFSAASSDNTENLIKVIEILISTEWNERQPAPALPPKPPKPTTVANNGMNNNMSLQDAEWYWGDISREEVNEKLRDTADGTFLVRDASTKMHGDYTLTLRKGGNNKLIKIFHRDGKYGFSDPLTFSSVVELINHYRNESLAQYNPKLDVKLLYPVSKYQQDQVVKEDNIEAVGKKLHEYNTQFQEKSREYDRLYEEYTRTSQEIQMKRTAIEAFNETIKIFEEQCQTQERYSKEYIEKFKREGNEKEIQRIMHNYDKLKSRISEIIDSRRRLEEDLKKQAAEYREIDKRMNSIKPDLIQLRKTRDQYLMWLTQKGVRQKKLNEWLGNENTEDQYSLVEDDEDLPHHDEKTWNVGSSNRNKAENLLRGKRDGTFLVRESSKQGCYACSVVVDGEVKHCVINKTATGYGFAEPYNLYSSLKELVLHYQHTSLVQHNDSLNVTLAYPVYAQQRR

PI3K γ (p110γ) = biological target: T3, PI3K γ (p110γ) (Homo sapiens, UniProt P48736); assay: PI 3-Kinase (human) HTRF assay, PI3K γ; type: biochemical; conditions: read-out: PI3K γ IC50
T3 construct: purchased Upstate / Millipore Corporation
T3 sequence (P48736 whole entry): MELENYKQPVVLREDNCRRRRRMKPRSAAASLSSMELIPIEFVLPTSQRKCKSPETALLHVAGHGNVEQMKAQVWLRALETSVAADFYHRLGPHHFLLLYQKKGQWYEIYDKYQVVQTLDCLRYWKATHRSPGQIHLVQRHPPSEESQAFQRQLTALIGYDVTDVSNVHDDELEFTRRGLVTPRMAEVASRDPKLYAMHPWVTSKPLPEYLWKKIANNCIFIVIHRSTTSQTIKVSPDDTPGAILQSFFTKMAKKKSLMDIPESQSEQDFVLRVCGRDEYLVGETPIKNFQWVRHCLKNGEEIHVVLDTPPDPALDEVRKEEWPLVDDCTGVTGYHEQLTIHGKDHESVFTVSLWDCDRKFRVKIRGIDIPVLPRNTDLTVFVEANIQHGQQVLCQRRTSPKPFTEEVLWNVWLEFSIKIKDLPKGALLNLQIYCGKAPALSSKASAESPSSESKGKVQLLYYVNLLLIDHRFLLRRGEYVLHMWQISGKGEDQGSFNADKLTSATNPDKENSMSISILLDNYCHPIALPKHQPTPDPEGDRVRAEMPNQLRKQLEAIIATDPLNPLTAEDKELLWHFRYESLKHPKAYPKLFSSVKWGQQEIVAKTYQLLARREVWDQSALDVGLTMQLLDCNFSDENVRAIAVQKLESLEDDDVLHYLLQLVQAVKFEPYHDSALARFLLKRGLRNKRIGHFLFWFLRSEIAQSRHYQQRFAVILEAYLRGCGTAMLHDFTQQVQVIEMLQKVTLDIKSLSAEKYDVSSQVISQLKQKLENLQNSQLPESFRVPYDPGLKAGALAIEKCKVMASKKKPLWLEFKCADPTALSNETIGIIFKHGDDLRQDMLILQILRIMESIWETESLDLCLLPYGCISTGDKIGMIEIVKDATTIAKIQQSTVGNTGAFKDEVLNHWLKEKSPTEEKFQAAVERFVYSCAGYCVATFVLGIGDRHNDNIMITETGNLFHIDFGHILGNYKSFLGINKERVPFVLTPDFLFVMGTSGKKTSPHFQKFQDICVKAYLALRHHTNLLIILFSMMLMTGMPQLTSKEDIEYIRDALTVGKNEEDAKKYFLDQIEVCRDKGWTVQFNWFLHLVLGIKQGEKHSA

PI3K δ = biological target: T4, PI3K δ (Homo sapiens, UniProt O00329); assay: PI 3-Kinase (human) HTRF assay, PI3K δ; type: biochemical; conditions: read-out: PI3K δ IC50
T4 construct: purchased Upstate / Millipore Corporation
T4 sequence (O00329 whole entry): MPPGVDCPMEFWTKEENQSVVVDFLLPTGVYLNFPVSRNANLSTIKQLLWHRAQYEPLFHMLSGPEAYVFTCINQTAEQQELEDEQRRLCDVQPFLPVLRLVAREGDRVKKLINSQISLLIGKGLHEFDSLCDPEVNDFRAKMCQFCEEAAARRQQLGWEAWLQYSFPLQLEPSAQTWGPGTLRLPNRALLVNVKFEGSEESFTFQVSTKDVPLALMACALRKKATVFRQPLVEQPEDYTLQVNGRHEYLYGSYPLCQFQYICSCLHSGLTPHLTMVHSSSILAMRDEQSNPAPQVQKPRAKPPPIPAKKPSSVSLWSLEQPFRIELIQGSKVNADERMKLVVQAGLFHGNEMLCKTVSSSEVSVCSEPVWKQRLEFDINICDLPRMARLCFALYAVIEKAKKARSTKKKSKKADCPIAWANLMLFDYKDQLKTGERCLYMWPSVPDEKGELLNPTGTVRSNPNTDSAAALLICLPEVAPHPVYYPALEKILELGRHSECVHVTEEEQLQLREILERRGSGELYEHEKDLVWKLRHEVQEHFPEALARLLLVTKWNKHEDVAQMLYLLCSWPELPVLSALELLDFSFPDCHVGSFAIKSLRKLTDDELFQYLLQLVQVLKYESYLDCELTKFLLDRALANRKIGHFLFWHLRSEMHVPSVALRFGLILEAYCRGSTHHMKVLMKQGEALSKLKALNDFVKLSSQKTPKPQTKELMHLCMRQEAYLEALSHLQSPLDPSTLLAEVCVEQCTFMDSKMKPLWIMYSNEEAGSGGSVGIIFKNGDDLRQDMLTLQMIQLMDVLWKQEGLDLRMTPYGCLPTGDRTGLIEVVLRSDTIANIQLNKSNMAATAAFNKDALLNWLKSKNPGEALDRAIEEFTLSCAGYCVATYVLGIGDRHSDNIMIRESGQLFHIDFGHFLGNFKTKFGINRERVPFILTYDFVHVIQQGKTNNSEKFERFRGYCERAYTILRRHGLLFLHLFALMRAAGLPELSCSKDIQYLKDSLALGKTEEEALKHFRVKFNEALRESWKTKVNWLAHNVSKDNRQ
T4 sequence (P27986 whole entry partner): as the sequence (P27986 whole entry partner) above

T47D = T47D proliferation; type: cell-based; conditions: Homo sapiens; T47D cell line
[1] = tested on: preclinical breast cancer model; assay: Preclinical breast cancer model, tumor weight / volume; type: in vivo; conditions: 70 mg/kg Pan-PI3K inhibitor; 60 mg/kg compound A; FIG. 9 left panel
B cell function = assay: TNP-Ficoll immunization, antibody production (FIG. 8); type: in vivo; conditions: mice immunized with TNP-Ficoll, 7 days, 70 mg/kg GDC0941, 30, 60 or 120 mg/kg Compound A
Experimental: Mice were immunized with TNP-Ficoll and treated with 1) vehicle; 2) 70 mg/kg GDC0941; 3) 30 mg/kg Compound A; 4) 60 mg/kg Compound A; or 5) 120 mg/kg Compound A for 7 days. Antibody production was measured as a percentage of control group that were treated with vehicle.

MZB cells = MZB cells in mouse spleen (FIG. 9, right panel); type: in vivo; conditions: 70 mg/kg Pan-PI3K inhibitor compared to 60 mg/kg Compound A
[2] = tested on: MDA-MB-361 (PI3Kα/HER2 carcinoma) tumors; assay: In vivo efficacy in xenogenic mouse model of breast cancer; set-up: species or system Nude mice; conditions: 70 mg/kg, FIG. 9 left panel
Experimental: Blood glucose was monitored periodically following administration of treatment.
Treatment of tumors (MDA-MB-361) with compounds was discontinued on Day 30. Tumors were measured every 2-5 days.

marginal zone B cells = assay: Marginal zone B cells in mouse spleen (FACS); type: in vivo; conditions: 70 mg/kg, spleens harvested 2 hrs after the last dose, FIG. 9
[3] = tested on: anti-TNP antibody production; assay: TNP-Ficoll T-cell independent B-cell activation assay; type: in vivo, mice; conditions: 70 mg/kg GDC0941 for 7 days, FIG. 8
Experimental: To test the effects of the compounds of the present invention in suppressing T cell independent antibody production, the TNP-Ficoll B-cell activation assay is used as described herein. Compounds of the present invention are dissolved in an appropriate vehicle (e.g. 5% 1-methyl-2-pyrrolidinone, 85% polyethylene glycol 400, 10% Solutor). Compounds are administered orally approximately 1 hr before TNP-Ficoll treatment to 4-10 week old mice. To study the effects of the compounds on B-cell activation, one set of mice are grouped according to the following table:
Four animals in group 1, and eight animals in groups 2 to 7 are euthanized in CO2 2 hours after the last compound administration on day 7. […]
Serum samples are analyzed for anti-TNP antibody titers by ELISA as described herein. […] HRP substrate (200 μl ABTS solution+30% H2O2+10 ml citrate buffer) is added to each well at 100 μl/well, incubated 2-20 minutes in the dark and the amount of anti-TNP IgG3 is determined spectrophotometrically at 405 nm. Similarly, anti-TNP IgM and total anti-TNP Ab are determined using anti-mouse IgM-HRP and anti-mouse Ig-HRP respectively.
Antibody production was measured using ELISA and plotted as a percentage of control group that were treated with vehicle.

T1 sequence (P42336 whole entry): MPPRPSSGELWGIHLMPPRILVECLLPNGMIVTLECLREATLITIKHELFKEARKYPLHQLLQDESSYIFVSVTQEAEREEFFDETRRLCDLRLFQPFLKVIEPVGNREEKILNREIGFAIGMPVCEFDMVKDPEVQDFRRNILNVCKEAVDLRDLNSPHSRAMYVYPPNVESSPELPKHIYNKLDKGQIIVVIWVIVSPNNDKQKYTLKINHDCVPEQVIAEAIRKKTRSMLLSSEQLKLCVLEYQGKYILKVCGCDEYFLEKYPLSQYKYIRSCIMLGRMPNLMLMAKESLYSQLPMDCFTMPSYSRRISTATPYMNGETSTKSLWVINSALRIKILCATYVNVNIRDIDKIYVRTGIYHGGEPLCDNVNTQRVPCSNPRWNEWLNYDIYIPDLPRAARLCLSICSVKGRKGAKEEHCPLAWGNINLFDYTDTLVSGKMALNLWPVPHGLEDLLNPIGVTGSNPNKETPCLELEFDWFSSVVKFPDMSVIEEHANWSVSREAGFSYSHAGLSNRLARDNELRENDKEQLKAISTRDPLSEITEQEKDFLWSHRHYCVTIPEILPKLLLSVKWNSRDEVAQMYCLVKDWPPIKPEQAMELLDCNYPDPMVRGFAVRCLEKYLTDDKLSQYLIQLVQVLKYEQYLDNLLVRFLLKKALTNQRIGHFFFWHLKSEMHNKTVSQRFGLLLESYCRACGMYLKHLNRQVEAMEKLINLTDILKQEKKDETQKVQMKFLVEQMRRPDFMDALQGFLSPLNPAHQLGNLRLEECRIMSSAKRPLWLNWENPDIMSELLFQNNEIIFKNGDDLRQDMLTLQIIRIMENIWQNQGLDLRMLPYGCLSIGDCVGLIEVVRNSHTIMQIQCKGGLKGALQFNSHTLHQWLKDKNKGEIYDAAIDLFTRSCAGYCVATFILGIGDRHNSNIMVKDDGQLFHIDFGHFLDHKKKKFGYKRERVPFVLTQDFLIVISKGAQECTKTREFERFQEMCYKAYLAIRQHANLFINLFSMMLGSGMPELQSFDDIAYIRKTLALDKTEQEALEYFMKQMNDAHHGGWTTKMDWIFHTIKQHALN
T1 sequence (P27986 whole entry partner): as the sequence (P27986 whole entry partner) above

| IC50 (PI3K α (p110α/p85α)) [µM] | IC50 (PI3K β (p110β/p85α)) [µM] | IC50 (PI3K γ (p110γ)) [µM] | IC50 (PI3K δ) [µM] | IC50 (T47D) [µM] | presence of MZB cells in mouse spleen (MZB cells) | SMILES | tumor weight of a breast cancer model [1] | B cell function in vivo (antibody production as percentage of vehicle control) (B cell function) | tumor weight [2] | presence of MZB cells in mouse spleen (marginal zone B cells) | B cell function in vivo (antibody production, ELISA) [3] |
| --- | --- | --- | --- | --- | --- | --- | --- | --- | --- | --- | --- |
| > 10 | > 10 | > 10 | > 10 | > 10 | – | Nc1nc2cc(-c3ccc4nnc(C(=O)N5CCOCC5)n4c3)ccc2o1 [Compound 282] | – | – | – | – | – |
| – | – | – | – | – | reduced presence of MZB cells | CS(=O)(=O)N1CCN(Cc2cc3nc(-c4cccc5[nH]ncc45)nc(N4CCOCC4)c3s2)CC1 [Pan-PI3K inhibitor, reference compound] | reduction in tumor weight | blocks B cell function in vivo | reduction in tumor weight | reduced presence of MZB cells | blocks B cell function in vivo |
